Assay results: patent publication US20240239784A1, “INDOLE COMPOUNDS AND METHODS OF USE” (GENZYME CORPORATION, priority 2021, published 2024)

What follows are molecules tested on NBD1 (assay: Aggregation analysis of NBD1 thermal stability by differential static light scattering (DSLS)). Conditions: compound at 100 μM; ΔTagg versus DMSO control.
Assay type: binding, Human
Experimental: Purified recombinant NBD1 was produced using previously described methods (A. Schmidt, J. L. Mendoza, P. J. Thomas (2011) Biochemical and Biophysical Approaches to Probe CFTR Structure (365-376) M. D. Amaral, K. Kunzelmann (eds.), Cysic Fibrosis, Methods in Molecular Biology 741, Springer Science+Business Media). The effect of test compounds on thermal stability of NBD1 was evaluated by differential static light scattering (DSLS) using the Harbinger Stargazer-384 instrument (Epiphyte Three, Toronto, Canada). Test compounds were dissolved and diluted to desired concentrations in 100% DMSO. The compounds or DMSO controls (100 nL) were stamped into wells of a […] low volume optical plate (Corning Inc., Corning, NY) using the Echo 555 acoustic liquid handler (Labcyte Inc., San Jose, CA).
NBD1 protein was diluted to 0.2 mg/ml in S200 buffer (50 mM Tris-HCl, 150 mM NaCl, 5 mM MgCl2, 2 mM ATP, 2 mM DTT, pH7.6) containing 1% glycerol. 10 uL of protein solution was aliquoted into the 384-well plate harboring the test compounds and 10 uL mineral oil was overlayed onto the protein solution, using the epMotion robotic liquid handler (Eppendorf North America, Hauppauge, NY). After placing into the Stargazer instrument, the plate was heated at 1° C. per minute to 70° C. Images were captured from 25° C. to 70° C. every 0.5° C. At the end of the experiment run, instrument software integrated image files and analyzed data automatically. A […] regression curve was generated for each well, representing the increase in light scattering over time. A temperature of aggregation (Tagg) was calculated based on the inflection point of the curve. To better compare data across experiments the average Tagg for DMSO control wells was calculated and subtracted from values for wells containing compounds to obtain a “ΔTagg” value. These ΔTagg values reflect stabilizing efficacy of the compounds.

Structure (SMILES)	DSLS NBD1/3D Human Stability delta-T (° C.) @ 100 (μM)
Cc1c(Oc2ccc(F)c(-c3ncc(C(C)(O)c4ccccc4)[nH]3)c2)c(F)cc2[nH]cc(CC(=O)O)c12 (stereo not shown) [Example 74, 2-(6-Fluoro-5-(4-fluoro-3-(5-(1-hydroxy-1-phenylethyl)-1H-imidazol-2-yl)phenoxy)-4-methyl-1H-indol-3-yl)acetic acid]	B (4-8° C.)
OC(c1cccc(-c2nnc(Cc3ccccc3)[nH]2)c1)c1ccc2[nH]ccc2c1 (single isomer, unassigned) [Example 35B, (3-(5-Benzyl-4H-1,2,4-triazol-3-yl)phenyl)(1H-indol-5-yl)methanol]	C (≤4° C.)
c1ccc(Cc2nnc(-c3cccc(Oc4ccc5[nH]cc6c5c4CNCC6)c3)[nH]2)cc1 [Example 46, 9-(3-(5-Benzyl-4H-1,2,4-triazol-3-yl)phenoxy)-2,3,4,6-tetrahydro-1H-azepino[5,4,3-cd]indole]	C (≤4° C.)
O=C(O)Cc1c[nH]c2ccc(Oc3cccc(-c4nnc(Cc5ccccc5)[nH]4)c3)cc12 [Example 30, 2-(5-(3-(5-Benzyl-4H-1,2,4-triazol-3-yl)phenoxy)-1H-indol-3-yl)acetic acid]	C (≤4° C.)
CC(C(=O)O)(c1ccccc1)c1c[nH]c(-c2cc(Oc3c(F)cc4[nH]ccc4c3F)ccc2F)n1 (stereo not shown) [Example 76, 2-(2-(5-((4,6-Difluoro-1H-indol-5-yl)oxy)-2-fluorophenyl)-1H-imidazol-4-yl)-2-phenylpropanoic acid]	B (4-8° C.)
CNCCS(=O)(=O)c1c(Oc2cccc(-c3ncc(C(C)(O)c4ccccc4)[nH]3)c2)c(F)cc2[nH]ccc12 (stereo not shown) [Example 64, 1-(2-(3-((6-Fluoro-4-((2-(methylamino)ethyl)sulfonyl)-1H-indol-5-yl)oxy)phenyl)-1H-imidazol-5-yl)-1-phenylethan-1-ol]	A (T ≥8° C.)
Cc1c(Oc2ccc(F)c(-c3nc(C(C)(CO)c4ccccc4)c[nH]3)c2)c(F)cc2[nH]ccc12 (stereo not shown) [Example 77, 2-(2-(2-Fluoro-5-((6-fluoro-4-methyl-1H-indol-5-yl)oxy)phenyl)-1H-imidazol-4-yl)-2-phenylpropan-1-ol]	B (4-8° C.)
O=C(Cc1c(Oc2cccc(-c3nnc(Cc4ccccc4)[nH]3)c2)ccc2[nH]ccc12)NS(=O)(=O)C1CC1 [Example 12, 2-(5-(3-(5-Benzyl-4H-1,2,4-triazol-3-yl)phenoxy)-1H-indol-4-yl)-N-(cyclopropylsulfonyl)acetamide]	A (T ≥8° C.)
CC(=O)c1c(Oc2cccc(-c3nc(C(C)(O)c4ccccc4)c[nH]3)c2)c(F)cc2[nH]ccc12 (stereo not shown) [Example 65, 1-(6-Fluoro-5-(3-(4-(1-hydroxy-1-phenylethyl)-1H-imidazol-2-yl)phenoxy)-1H-indol-4-yl)ethan-1-one]	A (T ≥8° C.)
CC(C)(O)c1nc(-c2cc(Oc3c(F)cc4[nH]ccc4c3S(C)(=O)=O)ccc2F)[nH]c1Cc1ccccc1 [Example 79, 2-(5-Benzyl-2-(2-fluoro-5-((6-fluoro-4-(methylsulfonyl)-1H-indol-5-yl)oxy)phenyl)-1H-imidazol-4-yl)propan-2-ol]	B (4-8° C.)
CC(C)(c1ccccc1)c1cnc(-c2cc(Oc3c(F)cc4[nH]ccc4c3CC(=O)O)ccc2F)[nH]1 [Example 4, 2-(6-Fluoro-5-(4-fluoro-3-(5-(2-phenylpropan-2-yl)-1H-imidazol-2-yl)phenoxy)-1H-indol-4-yl)acetic acid]	A (T ≥8° C.)
O=C(O)c1c(Oc2cccc(-c3nc(C(O)(c4ccccc4)C(F)(F)F)n[nH]3)c2)ccc2[nH]ccc12 (stereo not shown) [Example 67, 5-(3-(3-(2,2,2-Trifluoro-1-hydroxy-1-phenylethyl)-1H-1,2,4-triazol-5-yl)phenoxy)-1H-indole-4-carboxylic acid]	C (≤4° C.)
O=C(O)CCc1c(Oc2cccc(-c3nnc(Cc4ccccc4)[nH]3)c2)ccc2[nH]ccc12 [Example 58, 3-(5-(3-(5-Benzyl-4H-1,2,4-triazol-3-yl)phenoxy)-1H-indol-4-yl)propanoic acid]	A (T ≥8° C.)
NC(=O)Cc1c(Oc2cccc(-c3nnc(Cc4ccccc4)[nH]3)c2)ccc2[nH]ccc12 [Example 51, 2-(5-(3-(5-Benzyl-4H-1,2,4-triazol-3-yl)phenoxy)-1H-indol-4-yl)acetamide]	B (4-8° C.)
O=S(=O)(c1ccccc1)c1cnc(-c2cccc(Oc3ccc4[nH]ccc4c3)c2)[nH]1 [Example 32, 5-(3-(5-(Phenylsulfonyl)-1H-imidazol-2-yl)phenoxy)-1H-indole]	B (4-8° C.)
OCc1c(Oc2cccc(-c3nnc(Cc4ccccc4)[nH]3)c2)ccc2[nH]ccc12 [Example 20, (5-(3-(5-Benzyl-4H-1,2,4-triazol-3-yl)phenoxy)-1H-indol-4-yl)methanol]	B (4-8° C.)
CS(=O)(=O)c1c(Oc2cccc(-c3ncc(C(O)c4ccccc4)[nH]3)c2)c(F)cc2[nH]ccc12 (stereo not shown) [Example 14, (2-(3-((6-Fluoro-4-(methylsulfonyl)-1H-indol-5-yl)oxy)phenyl)-1H-imidazol-5-yl)(phenyl)methanol]	A (T ≥8° C.)
CC(O)(c1ccccc1)c1nnc(-c2cccc(Oc3ccc4[nH]ccc4n3)c2)[nH]1 (stereo not shown) [Example 16, 1-(5-(3-((1H-Pyrrolo[3,2-b]pyridin-5-yl)oxy)phenyl)-4H-1,2,4-triazol-3-yl)-1-phenylethan-1-ol]	B (4-8° C.)
O=C(O)Cc1c(Oc2cccc(-c3nnc(Cc4ccccc4)[nH]3)c2)ccc2[nH]ccc12 [Example 11, 2-(5-(3-(5-Benzyl-4H-1,2,4-triazol-3-yl)phenoxy)-1H-indol-4-yl)acetic acid]	B (4-8° C.)
c1ccc(Cc2coc(-c3cccc(Oc4ccc5[nH]ccc5c4)c3)n2)cc1 [Example 47, 2-(3-((1H-Indol-5-yl)oxy)phenyl)-4-benzyloxazole]	C (≤4° C.)
O=C(O)CC(c1cccc(-c2nnc(Cc3ccccc3)[nH]2)c1)c1ccc2[nH]ccc2c1 (stereo not shown) [Example 37, 3-(3-(5-Benzyl-4H-1,2,4-triazol-3-yl)phenyl)-3˜(1H-indol-5-yl)propanoic acid]	C (≤4° C.)
COCCS(=O)(=O)c1c(Oc2cccc(-c3ncc(C(C)(O)c4ccccc4)[nH]3)c2)c(F)cc2[nH]ccc12 (stereo not shown) [Example 61, 1-(2-(3-((6-Fluoro-4-((2-methoxyethyl)sulfonyl)-1H-indol-5-yl)oxy)phenyl)-1H-imidazol-5-yl)-1-phenylethan-1-ol]	B (4-8° C.)
CC(C)NCc1c(Oc2cccc(-c3nnc(Cc4ccccc4)[nH]3)c2)ccc2[nH]ccc12 [Example 21, N-((5-(3-(5-Benzyl-4H-1,2,4-triazol-3-yl)phenoxy)-1H-indol-4-yl)methyl)propan-2-amine 2,2,2-trifluoroacetate]	B (4-8° C.)
CS(=O)(=O)c1c(Oc2ccc(F)c(-c3nc(C(OCCO)c4ccccc4)c[nH]3)c2)c(F)cc2[nH]ccc12 (stereo not shown) [Example 72, 2-((2-(2-Fluoro-5-((6-fluoro-4-(methylsulfonyl)-1H-indol-5-yl)oxy)phenyl)-1H-imidazol-4-yl)(phenyl)methoxy)ethan-1-ol]	A (T ≥8° C.)
O=C(Cc1c(Oc2cccc(-c3nnc(Cc4ccccc4)[nH]3)c2)ccc2[nH]ccc12)NS(=O)(=O)C(F)(F)F [Example 60, 2-(5-(3-(5-Benzyl-4H-1,2,4-triazol-3-yl)phenoxy)-1H-indol-4-yl)-N-((trifluoromethyl)sulfonyl)acetamide]	A (T ≥8° C.)
CN(C)CCNC(c1ccccc1)c1nnc(-c2cccc(Oc3ccc4[nH]ccc4n3)c2)[nH]1 (stereo not shown) [Example 24, N1-((5-(3-((1H-Pyrrolo[3,2-b]pyridin-5-yl)oxy)phenyl)-4H-1,2,4-triazol-3-yl)(phenyl)methyl)-N2,N2-dimethylethane-1,2-diamine]	B (4-8° C.)
CC(O)(c1ccccc1)c1c[nH]c(-c2cc(Oc3c(F)cc4[nH]ccc4c3S(C)(=N)=O)ccc2F)n1 (stereo not shown) [Example 6, (6-fluoro-5-(4-fluoro-3-(4-(1-hydroxy-1-phenylethyl)-1H-imidazol-2-y1)phenoxy)-1H-indol-4-y1)(imino)(methyl)-16-sulfanone]	A (T ≥8° C.)
CC(c1ccccc1)c1c[nH]c(-c2cc(Oc3c(F)cc4[nH]ccc4c3CC3SC(=O)NC3=O)ccc2F)n1 (stereo not shown) [Example 2, 5-((6-Fluoro-5-(4-fluoro-3-(4-(1-phenylethyl)-1H-imidazol-2-yl)phenoxy)-1H-indol-4-yl)methyl)thiazolidine-2,4-dione]	B (4-8° C.)
